What all share (test): cell-based
One test deals with hNav1.3 (Homo sapiens, UniProt Q9NY46). To be noted: IonWorks Quattro, read-out: IWQ Use Nav1.3.
The next test addresses hNav1.7 (Homo sapiens, UniProt Q15858). The class given is cell-based.
In another test the target is hNav1.5 (Homo sapiens, UniProt Q14524).
The mark [1] stands for this setting: IonWorks Quattro, use-dependent block, hNav1.7, read-out: IWQ Use Nav1.7.
Where [2] appears, read: IonWorks Quattro, use-dependent block, hNav1.5, read-out: IWQ Use Nav1.5.
The mark [3] stands for this setting: clamped to −110 mV, depolarized to −10 mV, 5 min after compound, n=2.
The mark [4] stands for this setting: IonWorks Quattro, clamped to −110 mV, depolarized to −10 mV, 5 min after compound, n=2, read-out: IWQ Use Nav1.7.
[5] abbreviates: IonWorks Quattro, clamped to −110 mV, depolarized to −10 mV, 5 min after compound, n=2, read-out: IWQ Use Nav1.5.

Each structure is given as a SMILES string. pIC50: −log10 of the molar value. Like-named read-outs stand apart in the source and are kept apart here. Positions of bridges follow the written chain, without caps; N, C: chain ends. Non-standard residues stand in square brackets, D forms with d. Residues, ends and D or L forms follow the SMILES beside them. Bip = N[C@@H](Cc1ccc(-c2ccccc2)cc1)C(=O)O

hNav1.7, sequence (Q15858 whole entry, looked up): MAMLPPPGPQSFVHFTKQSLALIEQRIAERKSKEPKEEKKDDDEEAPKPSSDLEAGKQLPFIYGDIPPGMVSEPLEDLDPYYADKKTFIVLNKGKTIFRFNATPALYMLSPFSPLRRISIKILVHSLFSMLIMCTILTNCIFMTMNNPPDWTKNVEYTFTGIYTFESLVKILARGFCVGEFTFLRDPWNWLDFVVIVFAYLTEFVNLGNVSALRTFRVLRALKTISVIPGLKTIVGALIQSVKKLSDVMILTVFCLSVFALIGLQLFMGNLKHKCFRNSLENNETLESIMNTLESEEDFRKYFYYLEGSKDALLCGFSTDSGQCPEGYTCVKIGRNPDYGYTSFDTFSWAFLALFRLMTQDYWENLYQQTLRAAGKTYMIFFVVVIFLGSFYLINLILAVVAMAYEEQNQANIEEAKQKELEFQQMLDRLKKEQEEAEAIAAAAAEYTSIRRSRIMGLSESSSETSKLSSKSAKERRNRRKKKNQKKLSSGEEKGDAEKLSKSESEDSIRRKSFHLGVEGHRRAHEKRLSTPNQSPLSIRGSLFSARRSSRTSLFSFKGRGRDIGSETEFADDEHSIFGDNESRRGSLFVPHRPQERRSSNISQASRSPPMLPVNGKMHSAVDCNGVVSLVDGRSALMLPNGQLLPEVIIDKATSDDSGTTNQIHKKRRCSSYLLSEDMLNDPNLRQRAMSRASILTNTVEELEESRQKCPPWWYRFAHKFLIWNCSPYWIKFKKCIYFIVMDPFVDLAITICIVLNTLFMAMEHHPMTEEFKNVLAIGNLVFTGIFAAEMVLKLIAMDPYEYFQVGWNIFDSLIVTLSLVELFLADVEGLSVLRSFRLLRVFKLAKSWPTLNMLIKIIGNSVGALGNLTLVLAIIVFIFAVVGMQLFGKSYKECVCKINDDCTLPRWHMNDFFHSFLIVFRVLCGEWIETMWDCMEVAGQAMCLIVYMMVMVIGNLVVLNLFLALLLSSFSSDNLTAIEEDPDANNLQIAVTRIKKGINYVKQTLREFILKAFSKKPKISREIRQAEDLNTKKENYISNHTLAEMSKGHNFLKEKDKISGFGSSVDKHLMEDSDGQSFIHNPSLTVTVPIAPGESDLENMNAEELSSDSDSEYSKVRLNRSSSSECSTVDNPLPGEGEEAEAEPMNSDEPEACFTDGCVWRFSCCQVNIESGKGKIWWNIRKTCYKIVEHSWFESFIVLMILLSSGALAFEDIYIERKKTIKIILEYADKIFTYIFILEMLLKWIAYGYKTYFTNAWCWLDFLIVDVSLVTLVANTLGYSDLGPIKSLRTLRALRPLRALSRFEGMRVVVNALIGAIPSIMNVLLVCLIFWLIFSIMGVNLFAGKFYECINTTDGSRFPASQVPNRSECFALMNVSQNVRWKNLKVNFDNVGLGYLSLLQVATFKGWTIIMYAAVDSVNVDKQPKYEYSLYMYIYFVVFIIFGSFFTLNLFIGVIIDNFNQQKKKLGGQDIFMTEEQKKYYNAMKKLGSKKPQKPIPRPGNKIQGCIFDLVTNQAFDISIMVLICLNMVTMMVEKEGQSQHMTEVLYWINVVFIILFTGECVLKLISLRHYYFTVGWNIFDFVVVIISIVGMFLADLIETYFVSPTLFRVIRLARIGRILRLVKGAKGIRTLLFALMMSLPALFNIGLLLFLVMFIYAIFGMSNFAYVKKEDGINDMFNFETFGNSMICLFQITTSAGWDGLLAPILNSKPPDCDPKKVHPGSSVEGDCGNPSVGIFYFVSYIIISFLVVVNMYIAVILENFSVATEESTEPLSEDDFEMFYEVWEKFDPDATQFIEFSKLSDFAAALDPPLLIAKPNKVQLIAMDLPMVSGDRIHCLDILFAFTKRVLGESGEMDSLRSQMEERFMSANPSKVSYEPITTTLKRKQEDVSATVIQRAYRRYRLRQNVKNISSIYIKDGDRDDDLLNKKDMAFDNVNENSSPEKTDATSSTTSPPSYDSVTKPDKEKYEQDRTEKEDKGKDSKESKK
hNav1.3, sequence (Q9NY46 whole entry, looked up): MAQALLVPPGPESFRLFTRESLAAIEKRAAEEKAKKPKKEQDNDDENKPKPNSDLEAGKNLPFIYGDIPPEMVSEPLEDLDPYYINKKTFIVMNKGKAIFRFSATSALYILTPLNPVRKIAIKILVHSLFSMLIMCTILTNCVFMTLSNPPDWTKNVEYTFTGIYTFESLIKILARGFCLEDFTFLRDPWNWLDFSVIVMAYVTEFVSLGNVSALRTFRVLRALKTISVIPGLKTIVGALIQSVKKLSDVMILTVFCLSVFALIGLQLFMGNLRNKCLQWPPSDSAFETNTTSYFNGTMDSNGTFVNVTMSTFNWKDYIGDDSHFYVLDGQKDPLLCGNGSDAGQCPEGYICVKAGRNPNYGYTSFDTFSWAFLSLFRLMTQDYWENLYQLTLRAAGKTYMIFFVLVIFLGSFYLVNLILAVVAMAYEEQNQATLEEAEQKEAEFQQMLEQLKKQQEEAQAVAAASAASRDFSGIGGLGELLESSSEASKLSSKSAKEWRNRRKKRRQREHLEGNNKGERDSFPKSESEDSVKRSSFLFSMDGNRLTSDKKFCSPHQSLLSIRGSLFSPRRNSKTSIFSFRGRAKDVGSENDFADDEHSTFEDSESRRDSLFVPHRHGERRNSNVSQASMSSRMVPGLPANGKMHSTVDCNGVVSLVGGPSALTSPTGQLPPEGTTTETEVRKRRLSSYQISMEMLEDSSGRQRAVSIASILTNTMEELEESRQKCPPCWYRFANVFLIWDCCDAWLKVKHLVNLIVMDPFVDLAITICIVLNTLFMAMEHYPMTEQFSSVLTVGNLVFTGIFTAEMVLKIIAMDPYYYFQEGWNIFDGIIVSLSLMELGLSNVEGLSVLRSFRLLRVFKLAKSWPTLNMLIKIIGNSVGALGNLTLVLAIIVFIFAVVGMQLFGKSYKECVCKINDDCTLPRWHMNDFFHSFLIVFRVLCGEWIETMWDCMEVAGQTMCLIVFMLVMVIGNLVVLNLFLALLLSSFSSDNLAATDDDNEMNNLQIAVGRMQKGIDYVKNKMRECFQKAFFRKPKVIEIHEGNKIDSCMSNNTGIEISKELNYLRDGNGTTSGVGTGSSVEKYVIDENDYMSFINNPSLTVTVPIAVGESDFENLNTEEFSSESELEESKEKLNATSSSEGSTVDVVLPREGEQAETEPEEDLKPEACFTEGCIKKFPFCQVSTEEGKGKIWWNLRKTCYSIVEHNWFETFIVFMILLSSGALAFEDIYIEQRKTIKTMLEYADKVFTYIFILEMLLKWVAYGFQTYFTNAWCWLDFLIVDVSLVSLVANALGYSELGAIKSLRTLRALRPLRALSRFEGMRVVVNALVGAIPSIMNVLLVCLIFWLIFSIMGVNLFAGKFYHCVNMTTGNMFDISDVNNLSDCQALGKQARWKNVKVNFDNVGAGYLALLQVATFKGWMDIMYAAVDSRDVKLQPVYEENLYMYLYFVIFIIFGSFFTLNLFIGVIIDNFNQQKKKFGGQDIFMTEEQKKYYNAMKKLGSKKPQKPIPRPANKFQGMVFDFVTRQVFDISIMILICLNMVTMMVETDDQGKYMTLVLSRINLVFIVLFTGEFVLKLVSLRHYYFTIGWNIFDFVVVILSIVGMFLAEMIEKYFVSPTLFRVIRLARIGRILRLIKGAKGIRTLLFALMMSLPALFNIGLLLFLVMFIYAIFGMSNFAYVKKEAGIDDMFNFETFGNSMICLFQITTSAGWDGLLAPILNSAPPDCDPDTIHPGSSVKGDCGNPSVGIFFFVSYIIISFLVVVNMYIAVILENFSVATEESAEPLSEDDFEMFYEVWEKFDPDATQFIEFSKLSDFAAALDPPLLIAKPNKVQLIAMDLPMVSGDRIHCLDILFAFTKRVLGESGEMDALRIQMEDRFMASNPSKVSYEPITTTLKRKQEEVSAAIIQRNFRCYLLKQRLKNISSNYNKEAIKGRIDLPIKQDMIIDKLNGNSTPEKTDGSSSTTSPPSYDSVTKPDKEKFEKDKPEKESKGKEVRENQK

As for `CC[C@H](C)[C@@H]1NC(=O)[C@@H]2CSSC[C@@H]3NC(=O)[C@H](C(C)C)NC(=O)[C@H](CC(C)C)NC(=O)[C@H](CC(N)=O)NC(=O)[C@@H]4CCCN4C(=O)[C@H](CCCNC(=N)N)NC(=O)[C@H](CSSC[C@H](NC(=O)[C@@H](N)CC(=O)O)C(=O)N[C@@H](CC(C)C)C(=O)NCC(=O)N[C@@H](C)C(=O)N[C@@H](CC[S+](C)[O-])C(=O)N[C@@H](CCCNC(=N)N)C(=O)N[C@@H](CCCCN)C(=O)N2)NC(=O)[C@H](CSSC[C@@H](C(=O)N[C@@H](CCCCN)C(=O)N[C@@H](Cc2ccc(O)cc2)C(=O)N[C@H](C(=O)N[C@@H](Cc2ccccc2)C(N)=O)C(C)C)NC(=O)[C@H](Cc2c[nH]c4ccccc24)NC(=O)[C@H](CCCCN)NC(=O)[C@H](Cc2c[nH]cn2)NC(=O)[C@H]([C@@H](C)O)NC(=O)[C@H](CCCNC(=N)N)NC(=O)[C@H](CO)NC3=O)NC(=O)[C@H](CCCCN)NC(=O)[C@H](CC(=O)O)NC(=O)[C@H](CC(N)=O)NC(=O)[C@H](CC(=O)O)NC(=O)[C@@H]2CCCN2C1=O` (single isomer, unassigned) [compound 791], the pIC50 on hNav1.3 (use-dependent block, hNav1.3) was less than 5.30; at hNav1.7 (setting [1]) it was less than 5.30; at hNav1.5 (setting [2]), 4.40.

For `CC[C@H](C)[C@@H]1NC(=O)[C@@H]2CSSC[C@@H]3NC(=O)[C@H](C(C)C)NC(=O)[C@H](CC(C)C)NC(=O)[C@H](CC(N)=O)NC(=O)[C@@H]4CCCN4C(=O)[C@H](CCCNC(=N)N)NC(=O)[C@H](CSSC[C@H](NC(=O)[C@@H](N)CC(=O)O)C(=O)N[C@@H](CC(C)C)C(=O)NCC(=O)N[C@@H](C)C(=O)N[C@@H](CC[S+](C)[O-])C(=O)N[C@@H](CCCNC(=N)N)C(=O)N[C@@H](CCCCN)C(=O)N2)NC(=O)[C@H](CSSC[C@@H](C(=O)N[C@@H](CCCCN)C(=O)N[C@@H](Cc2ccc(O)cc2)C(=O)N[C@H](C(=O)N[C@@H](Cc2ccccc2)C(N)=O)C(C)C)NC(=O)[C@H](Cc2c[nH]c4ccccc24)NC(=O)[C@H](CCCCN)NC(=O)[C@H](Cc2c[nH]cn2)NC(=O)[C@H]([C@@H](C)O)NC(=O)[C@H](CCCNC(=N)N)NC(=O)[C@H](CO)NC3=O)NC(=O)[C@H](CCCCN)NC(=O)[C@H](CC(=O)O)NC(=O)[C@H](CC(N)=O)NC(=O)[C@H](CC(=O)O)NC(=O)[C@@H]2CCCN2C1=O` (single isomer, unassigned) [compound 792], the pIC50 at hNav1.3 (use-dependent block, hNav1.3) was less than 5.30; on hNav1.7 (setting [1]), less than 5.30; on hNav1.5 (setting [2]) it was 4.30.

Turning to `CC[C@H](C)[C@@H]1NC(=O)[C@@H]2CSSC[C@@H]3NC(=O)[C@H](C(C)C)NC(=O)[C@H](CC(C)C)NC(=O)[C@H](CC(N)=O)NC(=O)[C@@H]4CCCN4C(=O)[C@H](CCCNC(=N)N)NC(=O)[C@H](CSSC[C@H](NC(=O)[C@@H](N)CC(=O)O)C(=O)N[C@@H](CC(C)C)C(=O)NCC(=O)N[C@@H](Cc4ccccc4)C(=O)N[C@@H](CC[Se]C)C(=O)N[C@@H](CCCNC(=N)N)C(=O)N[C@@H](CCCCN)C(=O)N2)NC(=O)[C@H](CSSC[C@@H](C(=O)N[C@@H](CCCCN)C(=O)N[C@@H](Cc2ccc(O)cc2)C(=O)N[C@H](C(=O)N[C@@H](Cc2ccccc2)C(N)=O)C(C)C)NC(=O)[C@H](Cc2c[nH]c4ccccc24)NC(=O)[C@H](CCCCN)NC(=O)[C@H](Cc2c[nH]cn2)NC(=O)[C@H]([C@@H](C)O)NC(=O)[C@H](CCCNC(=N)N)NC(=O)[C@H](CO)NC3=O)NC(=O)[C@H](CCCCN)NC(=O)[C@H](CC(=O)O)NC(=O)[C@H](CC(N)=O)NC(=O)[C@H](CC(=O)O)NC(=O)[C@@H]2CCCN2C1=O` [SEQ ID NO: 3], the pIC50 on hNav1.3 (setting [3]) was 7.00; on hNav1.7 (setting [4]), 7.00; on hNav1.5 (setting [5]), 4.86.

With `CC[C@H](C)[C@@H]1NC(=O)[C@@H]2CSSC[C@@H]3NC(=O)[C@H](C(C)C)NC(=O)[C@H](CC(C)C)NC(=O)[C@H](CC(N)=O)NC(=O)[C@@H]4CCCN4C(=O)[C@H](CCCNC(=N)N)NC(=O)[C@H](CSSC[C@H](NC(=O)[C@H](CC(=O)O)NC(=O)[C@@H](N)CCC(=O)O)C(=O)N[C@@H](CC(C)C)C(=O)NCC(=O)N[C@@H](Cc4ccccc4)C(=O)N[C@@H](CCSC)C(=O)N[C@@H](CCCNC(=N)N)C(=O)N[C@@H](CCCCN)C(=O)N2)NC(=O)[C@H](CSSC[C@@H](C(=O)N[C@@H](CCCCN)C(=O)N[C@@H](Cc2ccc(O)cc2)C(=O)N[C@H](C(=O)N[C@@H](Cc2ccccc2)C(N)=O)C(C)C)NC(=O)[C@H](Cc2c[nH]c4ccccc24)NC(=O)[C@H](CCCCN)NC(=O)[C@H](Cc2cnc[nH]2)NC(=O)[C@H]([C@@H](C)O)NC(=O)[C@H](CCCNC(=N)N)NC(=O)[C@H](CO)NC3=O)NC(=O)[C@H](CCCCN)NC(=O)[C@H](CC(=O)O)NC(=O)[C@H](CC(N)=O)NC(=O)[C@H](CC(=O)O)NC(=O)[C@@H]2CCCN2C1=O` [SEQ ID NO: 17], the pIC50 on hNav1.3 (setting [3]) is 6.72; on hNav1.7, 6.59; on hNav1.5 (IWQ Use Nav1.5) it was 4.89.

Regarding `CC[C@H](C)[C@@H]1NC(=O)[C@@H]2CSSC[C@@H]3NC(=O)[C@H](C(C)C)NC(=O)[C@H](CC(C)C)NC(=O)[C@H](CC(N)=O)NC(=O)[C@@H]4CCCN4C(=O)[C@H](CCCNC(=N)N)NC(=O)[C@H](CSSC[C@H](NC(=O)[C@@H](N)CC(=O)O)C(=O)N[C@@H](CC(C)C)C(=O)NCC(=O)N[C@@H](Cc4ccccc4)C(=O)N[C@@H](C)C(=O)N[C@@H](CCCNC(=N)N)C(=O)N[C@@H](CCCCN)C(=O)N2)NC(=O)[C@H](CSSC[C@@H](C(=O)N[C@@H](CCCCN)C(=O)N[C@@H](Cc2ccc(O)cc2)C(=O)N[C@H](C(=O)N[C@@H](Cc2ccccc2)C(N)=O)C(C)C)NC(=O)[C@H](Cc2c[nH]c4ccccc24)NC(=O)[C@H](CCCCN)NC(=O)[C@H](Cc2cnc[nH]2)NC(=O)[C@H]([C@@H](C)O)NC(=O)[C@H](CCCNC(=N)N)NC(=O)[C@H](CO)NC3=O)NC(=O)[C@H](CCCCN)NC(=O)[C@H](CC(=O)O)NC(=O)[C@H](CC(N)=O)NC(=O)[C@H](CC(=O)O)NC(=O)[C@@H]2CCCN2C1=O` [SEQ ID NO: 23] (H-DCLGFARKCIPDNDKCCRPNLVCSRTHKWCKYVF-NH2; disulfide 2-17, 9-23, 16-30), the pIC50 was 6.68 on hNav1.3 (setting [3]), 6.29 at hNav1.7 (setting [4]) and 4.76 at hNav1.5 (setting [5]).

For the compound `CC[C@H](C)[C@@H]1NC(=O)[C@@H]2CSSC[C@@H]3NC(=O)[C@H](C(C)C)NC(=O)[C@H](CC(C)C)NC(=O)[C@H](CC(N)=O)NC(=O)[C@@H]4CCCN4C(=O)[C@H](CCCNC(=N)N)NC(=O)[C@H](CSSC[C@H](NC(=O)[C@H](CC(=O)O)NC(=O)[C@@H](N)CCCCN)C(=O)N[C@@H](CC(C)C)C(=O)NCC(=O)N[C@@H](Cc4ccccc4)C(=O)N[C@@H](CCSC)C(=O)N[C@@H](CCCNC(=N)N)C(=O)N[C@@H](CCCCN)C(=O)N2)NC(=O)[C@H](CSSC[C@@H](C(=O)N[C@@H](CCCCN)C(=O)N[C@@H](Cc2ccc(O)cc2)C(=O)N[C@H](C(=O)N[C@@H](Cc2ccccc2)C(N)=O)C(C)C)NC(=O)[C@H](Cc2c[nH]c4ccccc24)NC(=O)[C@H](CCCCN)NC(=O)[C@H](Cc2cnc[nH]2)NC(=O)[C@H]([C@@H](C)O)NC(=O)[C@H](CCCNC(=N)N)NC(=O)[C@H](CO)NC3=O)NC(=O)[C@H](CCCCN)NC(=O)[C@H](CC(=O)O)NC(=O)[C@H](CC(N)=O)NC(=O)[C@H](CC(=O)O)NC(=O)[C@@H]2CCCN2C1=O` [SEQ ID NO: 36], the pIC50 is 7.00 at hNav1.3 (setting [3]), 6.96 at hNav1.7 (setting [4]) and 5.08 on hNav1.5 (setting [5]).

Turning to `CC[C@H](C)[C@@H]1NC(=O)[C@@H]2CSSC[C@@H]3NC(=O)[C@H](C(C)C)NC(=O)[C@H](CC(C)C)NC(=O)[C@H](CC(N)=O)NC(=O)[C@@H]4CCCN4C(=O)[C@H](CCCNC(=N)N)NC(=O)[C@H](CSSC[C@H](NC(=O)[C@@H](N)CC(=O)O)C(=O)N[C@@H](CC(C)C)C(=O)NCC(=O)N[C@@H](Cc4ccccc4)C(=O)N[C@@H](CCSC)C(=O)N[C@@H](CCCNC(=N)N)C(=O)N[C@@H](CCCCN)C(=O)N2)NC(=O)[C@H](CSSC[C@@H](C(=O)N[C@@H](CCCCN)C(=O)N[C@@H](Cc2ccc(-c4ccccc4)cc2)C(=O)N[C@H](C(=O)N[C@@H](Cc2ccccc2)C(N)=O)C(C)C)NC(=O)[C@H](Cc2c[nH]c4ccccc24)NC(=O)[C@H](CCCCN)NC(=O)[C@H](Cc2c[nH]cn2)NC(=O)[C@H]([C@@H](C)O)NC(=O)[C@H](CCCNC(=N)N)NC(=O)[C@H](CO)NC3=O)NC(=O)[C@H](CCCCN)NC(=O)[C@H](CC(=O)O)NC(=O)[C@H](CC(N)=O)NC(=O)[C@H](CC(=O)O)NC(=O)[C@@H]2CCCN2C1=O` [compound 376] (H-DCLGFMRKCIPDNDKCCRPNLVCSRTHKWCK[Bip]VF-NH2; disulfide 2-17, 9-23, 16-30), the pIC50 was 7.52 at hNav1.7 (Table 25, IonWorks Quattro, use, […], read-out: IWQ Use Nav1.7) and 5.54 at hNav1.5 (Table 25, IonWorks Quattro, use, […], read-out: IWQ Use Nav1.5).

These data come from patent US9340590B2 (priority 2011, dated 2016).
